Patent US7550599B2, “Water compatible sterically hindered alkoxyamines and hydroxy substituted alkoxyamines” (Ciba Specialty Chemicals Corporation, priority 2003, dated 2009)

Tests used:
[1] = Ink jet media light fastness, cyan, Example 31; conditions: 100% print density, office fluorescent lighting
Description: (§1) A resin-coated paper impregnated with inorganic adsorbent particles (Konica QP Photoglossy ink jet paper, Konica Corp.) is purchased. On the ink-receiving layer, a 0.8 wt % methanol solution of the instant compounds is applied in an amount to achieve 650-700 mg/m^2, unless otherwise stated. The paper is allowed to dry under ambient temperature and pressure for 24 hours. Separately, test patterns (cyan) are printed on the treated sheets using a Hewlett Packard DeskJet 970 Cxi printer at 100% print density. The obtained prints are left to dry at ambient temperature and pressure for 24 hours. Color densities and CIEL*a*b coordinates before and after exposure are measured using X-Rite 938 Spectrodensitometer. Exposures are carried out using normal office fluorescent lighting.

[2] = Ink jet media light fastness, yellow, Example 33; conditions: 50% print density as printed, office fluorescent lighting, 650-700 mg/m2
Description: as §1, with “stated otherwise.” for “otherwise stated.”, “(yellow)” for “(cyan)”, “50%” for “100%”

[3] = Ink jet media light fastness, cyan, Example 34; conditions: 50% print density, office fluorescent lighting
Description: as §1, with “50%” for “100%”

[4] = Ink jet media light fastness, yellow, Example 36; conditions: 50% print density, office fluorescent lighting, 650-700 mg/m2
Description: as §1, with “stated otherwise.” for “otherwise stated.”, “(yellow)” for “(cyan)”, “50%” for “100%”

[5] = Solubility in 50% butyl carbitol / 50% water; type: physicochemical; conditions: 50% butyl carbitol / 50% water by weight; stirred 30 minutes
Description: (§2) The solubility of the instant compounds is evaluated in polar solvent systems. A solution of 50% butyl carbitol by weight and 50% water by weight is prepared. The instant compounds are added to this solution, stirred for 30 minutes, and sampled for analysis. Samples containing bis(1-octyloxy-2,2,6,6-tetramethylpiperidin-4-yl)sebacate and 4-hydroxy-1-(2-hydroxy-2-methylpropoxy)-2,2,6,6-tetramethylpiperidine are filtered to remove any undissolved residue and all samples are analyzed by high pressure liquid chromatography or gas chromatography.

[6] = Solubility in 50% butyl cellusolve / 50% water; type: physicochemical; conditions: 50% butyl cellusolve / 50% water by weight; stirred 30 minutes
Description: as §2, with “cellusolve” for “carbitol”, “solution” for “solution,”

[7] = Solubility in 25% butyl cellusolve / 75% water; type: physicochemical; conditions: 25% butyl cellusolve / 75% water by weight; stirred 30 minutes
Description: as §2, with “of 25%” for “of 50%”, “butyl cellusolve” for “butyl carbitol”, “and 75%” for “and 50%”, “containing bis[…]” for “containing bis(1-octyloxy-2,2,6,6-tetramethylpiperidin-4-yl)sebacate”

Solubility in water = type: physicochemical; conditions: stirred 30 minutes
Description: as §2, with “systems.” for “systems. A solution of 50% butyl carbitol by weight and 50% water by weight is prepared.”, “water,” for “this solution,”

[8] = Ink jet media light fastness, magenta, Example 32; conditions: 100% print density, office fluorescent lighting
Description: as §1, with “(magenta)” for “(cyan)”

[9] = Compatibility (clarity) in water borne urethane/acrylic copolymer coating, Example 101; type: physicochemical; conditions: 2% by weight stabilizer; haziness = incompatibility
Description: Formulation Reference: NeoResins, Inc., Formulation WB-2010, Technical Brochure, August, 2000.
(§3) The following components are mixed together under good agitation:
This solution is added to a 4 ounce clear glass jar containing 72.85 parts of NeoPac R-9699 under vigorous agitation and agitated for 10 minutes. Optionally, a defoamer, like Dehydran 1620 (Henkel), and a flash rusting agent, like Heiscore XAB (Cas Chem), are added. The lid is placed securely on the jar. The solidified coatings are visually observed for clarity after solidification. The development of opacity or haziness is indicative of an incompatibility between the hindered amine stabilizer and the formulated coating.

[10] = Compatibility (clarity) in alkali-soluble water-borne acrylic copolymer coating, liquid in jar, Example 112; type: physicochemical; conditions: 2% by weight stabilizer; haziness = incompatibility
Description: Formulation Reference: NeoResins, Inc., Formulation WB-2065, Technical Brochure.
as §3
(§4) This solution is added to a 4 ounce clear glass jar containing 54.14 parts of NeoCryl BT-520 and 0.43 parts of Instant Stabilizer under vigorous agitation and is agitated for 10 minutes. The lid is placed securely on the jar. The liquid coating samples are visually observed for clarity over time. The development of opacity or haziness is indicative of an incompatibility between the hindered amine stabilizer and the formulated coating.

[11] = Compatibility (clarity) in two component water-borne polyurethane coating, jar, Example 113; type: physicochemical; conditions: 2% by weight stabilizer, with UVA; haziness = incompatibility
Description: Formulation Reference: Bayer Corp., 2K Waterborne Clear, Notebook #820894-A, Technical Brochure.
as §3
as §4, with “15.56” for “54.14”, “Bayhydur XP-7165” for “NeoCryl BT-520”, “3.91” for “0.43”, “Exxate 700” for “Instant Stabilizer”, “solidified” for “liquid”

[12] = Compatibility (clarity) of acrylic copolymer coating in Petri dish, Example 114; type: physicochemical; conditions: coating of Example 112; oven 65 C thirty minutes; 2% by weight stabilizer
Description: (§5) The hindered amine test stabilizers are incorporated into a coating system as described in Example 112. A 9.5-10 gram sample of each of the liquid coatings is added to a 100 mm×15 mm Petri dish and is placed in an oven at 65 C for thirty minutes. The samples are taken out of the oven, allowed to cool, and are visually observed for clarity over time. The development of opacity or haziness is indicative of an incompatibility between the hindered amine stabilizer and the formulated coating.

[13] = Compatibility (clarity) of polyurethane coating in Petri dish, Example 115; type: physicochemical; conditions: coating of Example 113; oven 75 C 120 minutes; 2% by weight stabilizer
Description: as §5, with “113.” for “112.”, “75” for “65”, “120” for “thirty”

CC(C)(O)CON1C(C)(C)CC(=NO)CC1(C)C [Example 2]
DE for cyan after 4 weeks ([1]; 650-700 mg/m2): 4.69
DE for yellow after 4 weeks [2]: 3.87
DE for cyan after 4 weeks ([3]; 650-700 mg/m2): 5.53
DE for yellow after 4 weeks [4]: 1.36

CC(C)(O)CON1C(C)(C)CC(O)CC1(C)C [HALS B, 4-hydroxy-1-(2-hydroxy-2-methylpropoxy)-2,2,6,6-tetramethylpiperidine, reference compound]
Solubility (% by weight) [5]: 13.4 % by weight
Solubility (% by weight) [6]: 15.5 % by weight
Solubility (% by weight) [7]: 13.6 % by weight
Solubility (% by weight) (Solubility in water): 1.4 % by weight

CC(C)(O)CON1C(C)(C)CC(NCCO)CC1(C)C.Cl [Example 22]
DE for cyan after 4 weeks ([1]; 650-700 mg/m2): 5.26
DE for cyan after 4 weeks ([1]; (2x) 1300 to 1400 mg/m2): 4.62
DE for magenta after 4 weeks ([8]; 650-700 mg/m2): 25.20
DE for magenta after 4 weeks ([8]; (2x) 1300 to 1400 mg/m2): 21.96
DE for yellow after 4 weeks [2]: 5.53
DE for cyan after 4 weeks ([3]; 650-700 mg/m2): 5.98
DE for cyan after 4 weeks ([3]; (2x) 1300 to 1400 mg/m2): 5.11
DE for yellow after 4 weeks [4]: 3.15

CCCCCCCCON1C(C)(C)CC(OC(=O)CCCCCCCCC(=O)OC2CC(C)(C)N(OCCCCCCCC)C(C)(C)C2)CC1(C)C [HALS A, bis(1-octyloxy-2,2,6,6-tetramethylpiperidin-4-yl) sebacate, reference compound]
Solubility (% by weight) [5]: 0.2 % by weight
Solubility (% by weight) [6]: 0.7 % by weight
Solubility (% by weight) [7]: <0.1 % by weight
Solubility (% by weight) (Solubility in water): <0.1 % by weight

CC(C)(O)CON1C(C)(C)CC(NCCO)CC1(C)C [Example 1]
DE for cyan after 4 weeks ([1]; 650-700 mg/m2): 4.21
DE for magenta after 4 weeks ([8]; 650-700 mg/m2): 20.23
DE for cyan after 4 weeks ([3]; 650-700 mg/m2): 5.29

CCCCN(c1nc(Nc2ccc(Cl)c(C(=O)O)c2)nc(N(CCCC)C2CC(C)(C)N(OC3CCCCC3)C(C)(C)C2)n1)C1CC(C)(C)N(OC2CCCCC2)C(C)(C)C1 [G]
Solidified coating in jar, clarity, 0 days [9]: clear
Solidified coating in jar, clarity, 1 days [9]: clear
Solidified coating in jar, clarity, 19 days [9]: clear

CON1C(C)(C)CC(NCCOCCOCCNC2CC(C)(C)N(OC)C(C)(C)C2)CC1(C)C [L]
Solidified coating in jar, clarity, 0 days [9]: clear
Solidified coating in jar, clarity, 1 days [9]: clear
Solidified coating in jar, clarity, 19 days [9]: clear

CCCCN(c1nc(Nc2ccc(S(=O)(=O)O)cc2)nc(N(CCCC)C2CC(C)(C)N(OC3CCCCC3)C(C)(C)C2)n1)C1CC(C)(C)N(OC2CCCCC2)C(C)(C)C1.Cl [H]
Solidified coating in jar, clarity, 0 days [9]: clear
Solidified coating in jar, clarity, 1 days [9]: clear
Solidified coating in jar, clarity, 19 days [9]: clear

CCCCN(c1nc(NCCN2CCNCC2)nc(N(CCCC)C2CC(C)(C)N(OC3CCCCC3)C(C)(C)C2)n1)C1CC(C)(C)N(OC2CCCCC2)C(C)(C)C1.Cl [J]
Solidified coating in jar, clarity, 0 days [9]: clear
Solidified coating in jar, clarity, 1 days [9]: clear
Solidified coating in jar, clarity, 19 days [9]: clear

CC(=O)O.CCCCN(c1nc(NCCNCCNCCN)nc(N(CCCC)C2CC(C)(C)N(OC3CCCCC3)C(C)(C)C2)n1)C1CC(C)(C)N(OC2CCCCC2)C(C)(C)C1 [I]
Solidified coating in jar, clarity, 0 days [9]: clear
Solidified coating in jar, clarity, 1 days [9]: clear
Solidified coating in jar, clarity, 19 days [9]: clear

CC(C)(O)CON1C(C)(C)CC(NCC(=O)[O-])CC1(C)C.[K+] [Example 10]
Solubility (% by weight) [5]: ≧20 % by weight
Solubility (% by weight) [6]: ≧20 % by weight
Solubility (% by weight) [7]: ≧18 % by weight
Solubility (% by weight) (Solubility in water): ≧8 % by weight

CCCCCCCCON1C(C)(C)CC(OC(=O)CCCCCCCCC(=O)OC2CC(C)(C)N(OCCCCCCCC)C(C)(C)C2)CC1(C)C [B]
Solidified coating in jar, clarity, 0 days [9]: hazy
Solidified coating in jar, clarity, 1 days [9]: hazy
Solidified coating in jar, clarity, 19 days [9]: hazy
Liquid coating in jar, clarity, 0 [10]: hazy
Liquid coating in jar, clarity, 1 Month [10]: hazy
Liquid coating in jar, clarity, Day 1 [10]: hazy
Solidified coating in jar, clarity, 0 [11]: hazy
Solidified coating in jar, clarity, 1 Month [11]: hazy
Solidified coating in jar, clarity, Day 1 [11]: hazy
Solidified coating in Petri Dish, clarity, 0 [12]: hazy
Solidified coating in Petri Dish, clarity, 1 Month [12]: hazy
Solidified coating in Petri Dish, clarity, Day 1 [12]: hazy
Solidified coating in Petri Dish, clarity, 0 [13]: hazy
Solidified coating in Petri Dish, clarity, 1 Month [13]: hazy
Solidified coating in Petri Dish, clarity, Day 1 [13]: hazy
